Assay results taken from US9221756B2, “Pyrrole derivatives” (priority 2011, dated 2015).
pIC50: −log10 of the molar value.

What follows are compounds tested against pneumolysin (Streptococcus pneumoniae serotype 2, UniProt Q04IN8) (assay: Inhibition of the haemolytic activity of pneumolysin (sheep erythrocytes)). Settings: IC50, inhibition of pneumolysin-induced haemolysis of sheep erythrocytes; class symbols of Table 1.
Type: cell-based

Sequence of pneumolysin (Q04IN8 whole entry): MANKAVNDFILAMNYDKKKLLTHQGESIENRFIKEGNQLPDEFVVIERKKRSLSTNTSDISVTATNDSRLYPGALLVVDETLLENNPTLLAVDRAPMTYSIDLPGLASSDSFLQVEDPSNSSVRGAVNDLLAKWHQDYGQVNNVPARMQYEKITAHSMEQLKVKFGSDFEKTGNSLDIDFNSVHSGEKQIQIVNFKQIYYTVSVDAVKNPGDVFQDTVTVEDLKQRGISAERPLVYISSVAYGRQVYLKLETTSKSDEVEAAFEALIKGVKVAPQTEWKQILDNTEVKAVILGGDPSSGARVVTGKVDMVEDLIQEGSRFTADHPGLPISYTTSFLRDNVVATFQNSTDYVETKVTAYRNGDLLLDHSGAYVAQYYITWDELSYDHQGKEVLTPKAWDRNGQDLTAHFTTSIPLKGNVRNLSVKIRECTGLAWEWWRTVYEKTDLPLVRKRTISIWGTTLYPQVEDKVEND

| SMILES | pIC50 |
| --- | --- |
| CCOC(=O)c1c(O)c(O)c(C(=O)N(CC)CC)n1-c1ccc(OC)cc1 [UL1-041, ethyl 5-(diethylcarbamoyl)-3,4-dihydroxy-1-(4-methoxyphenyl)-1H-pyrrole-2-carboxylate] | > 5.00 |
| CCOC(=O)c1c(O)c(O)c(C(=O)N(C)C)n1-c1ccc(I)cc1 [UL1-042, ethyl 5-(dimethylcarbamoyl)-3,4-dihydroxy-1-(4-iodophenyl)-1H-pyrrole-2-carboxylate] | > 5.00 |
| CCOC(=O)c1c(O)c(O)c(C(=O)N(C)C)n1-c1ccc(OC)c(I)c1 [UL1-043, ethyl 5-(dimethylcarbamoyl)-3,4-dihydroxy-1-(3-iodo-4-methoxyphenyl)-1H-pyrrole-2-carboxylate] | > 5.00 |
| CCOc1ccc(-n2c(C(=O)N(CC)CC)c(OCc3ccccc3)c(OCc3ccccc3)c2C(=O)N(CC)CC)cc1 [UL1-045, 3,4-bis(benzyloxy)-1-(4-ethoxyphenyl)-N^2,N^2,N^5,N^5-tetraethyl-1H-pyrrole-2,5-dicarboxamide] | > 5.00 |
| CCN(CC)C(=O)c1c(OCc2ccccc2)c(OCc2ccccc2)c(C(=O)N(CC)CC)n1-c1ccc(OC)cc1 [UL1-046, 3,4-bis(benzyloxy)-N^2,N^2,N^5,N^5-tetraethyl-1-(4-methoxyphenyl)-1H-pyrrole-2,5-dicarboxamide] | > 5.00 |
| COc1ccc(-n2c(C(=O)N(C)C)c(OCc3ccccc3)c(OCc3ccccc3)c2C(=O)N(C)C)cc1 [UL1-047, 3,4-bis(benzyloxy)-1-(4-methoxyphenyl)-N^2,N^2,N^5,N^5-tetramethyl-1H-pyrrole-2,5-dicarboxamide] | 4.70 to 5.00 |
| COc1ccc(-n2c(C(=O)N3CCN(C(=O)OC(C)(C)C)CC3)c(OCc3ccccc3)c(OCc3ccccc3)c2C(=O)N2CCN(C(=O)OC(C)(C)C)CC2)cc1 [UL1-048, di-tert-butyl 4,4′-(3,4-bis(benzyloxy)-1-(4-methoxyphenyl)-1H-pyrrole-2,5-dicarbonyl)bis(piperazine-1-carboxylate)] | > 5.00 |
| COc1ccc(-n2c(C(=O)N3CCCCC3)c(OCc3ccccc3)c(OCc3ccccc3)c2C(=O)N2CCCCC2)cc1 [UL1-049, (3,4-bis(benzyloxy)-1-(4-methoxyphenyl)-1H-pyrrole-2,5-diyl)bis(piperidin-1-ylmethanone)] | > 5.00 |
| COc1ccccc1-n1c(C(=O)N(C)C)c(OCc2ccccc2)c(OCc2ccccc2)c1C(=O)N(C)C [UL1-050, 3,4-bis(benzyloxy)-1-(2-methoxyphenyl)-N^2,N^2,N^5,N^5-tetramethyl-1H-pyrrole-2,5-dicarboxamide] | 4.70 to 5.00 |
| COc1ccccc1-n1c(C(=O)N2CCOCC2)c(OCc2ccccc2)c(OCc2ccccc2)c1C(=O)N1CCOCC1 [UL1-051, (3,4-bis(benzyloxy)-1-(2-methoxyphenyl)-1H-pyrrole-2,5-diyl)bis(morpholinomethanone)] | 4.22 to 4.70 |
| CCOc1ccc(-n2c(C(=O)N(C)C)c(OCc3ccccc3)c(OCc3ccccc3)c2C(=O)N(C)C)cc1 [UL1-052, 3,4-bis(benzyloxy)-1-(4-ethoxyphenyl)-N^2,N^2,N^5,N^5-tetramethyl-1H-pyrrole-2,5-dicarboxamide] | > 5.00 |
| CCOc1ccc(-n2c(C(=O)N3CCOCC3)c(OCc3ccccc3)c(OCc3ccccc3)c2C(=O)N2CCOCC2)cc1 [UL1-053, (3,4-bis(benzyloxy)-1-(4-ethoxyphenyl)-1H-pyrrole-2,5-diyl)bis(morpholinomethanone)] | 4.70 to 5.00 |
| CN(C)C(=O)c1c(OCc2ccccc2)c(OCc2ccccc2)c(C(=O)N(C)C)n1-c1ccc(C(F)(F)F)cc1 [UL1-054, 3,4-bis(benzyloxy)-N^2,N^2,N^5,N^5-tetramethyl-1-(4-(trifluoromethyl)phenyl)-1H-pyrrole-2,5-dicarboxamide] | 4.70 to 5.00 |
| CCNC(=O)c1c(OCc2ccccc2)c(OCc2ccccc2)c(C(=O)N(C)C)n1-c1ccc(OC)cc1 [UL1-055, 3,4-bis(benzyloxy)-N^2-ethyl-1-(4-methoxyphenyl)-N^5,N^5-dimethyl-1H-pyrrole-2,5-dicarboxamide] | 4.70 to 5.00 |
| COc1ccc(-n2c(C(=O)N(C)C)c(OCc3ccccc3)c(OCc3ccccc3)c2C(=O)N2CCN(C)CC2)cc1 [UL1-056, 3,4-bis(benzyloxy)-1-(4-methoxyphenyl)-N,N-dimethyl-5-(4-methylpiperazine-1-carbonyl)-1H-pyrrole-2-carboxamide] | 4.70 to 5.00 |
| COc1ccc(-n2c(C(=O)N(C)C)c(OCc3ccccc3)c(OCc3ccccc3)c2C(=O)N2CCCCC2)cc1 [UL1-057, 3,4-bis(benzyloxy)-1-(4-methoxyphenyl)-N,N-dimethyl-5-(piperidine-1-carbonyl)-1H-pyrrole-2-carboxamide] | > 5.00 |
| COc1ccc(-n2c(C(=O)N(C)C)c(OCc3ccccc3)c(OCc3ccccc3)c2C(=O)N2CCOCC2)cc1 [UL1-058, 3,4-bis(benzyloxy)-1-(4-methoxyphenyl)-N,N-dimethyl-5-(morpholine-4-carbonyl)-1H-pyrrole-2-carboxamide] | 4.22 to 4.70 |
| COc1ccc(-n2c(C(=O)N3CCN(C(C)=O)CC3)c(OCc3ccccc3)c(OCc3ccccc3)c2C(=O)N2CCN(C(C)=O)CC2)cc1 [UL1-059, 1,1′-(4,4′-(3,4-bis(benzyloxy)-1-(4-methoxyphenyl)-1H-pyrrole-2,5-dicarbonyl)bis(piperazine-4,1-diyl))diethanone] | 4.22 to 4.70 |
| CCOC(=O)c1c(OCc2ccccc2)c(OCc2ccccc2)c(C#N)n1-c1ccc(F)cc1 [UL1-060, ethyl 3,4-bis(benzyloxy)-5-cyano-1-(4-fluorophenyl)-1H-pyrrole-2-carboxylate] | 4.22 to 4.70 |

| SMILES | pIC50 |
| --- | --- |
| CN(C)C(=O)c1c(OCc2ccccc2)c(OCc2ccccc2)c(C#N)n1-c1ccc(F)cc1 [UL1-061, 3,4-bis(benzyloxy)-5-cyano-1-(4-fluorophenyl)-N,N-dimethyl-1H-pyrrole-2-carboxamide] | > 5.00 |
| CCOC(=O)c1c(OCc2ccccc2)c(OCc2ccccc2)c(C(=O)N(C)C)n1-c1ccc(I)cc1 [UL1-062, ethyl 3,4-bis(benzyloxy)-5-(dimethylcarbamoyl)-1-(4-iodophenyl)-1H-pyrrole-2-carboxylate] | > 5.00 |
| COc1ccc(-n2c(C(N)=O)c(OCc3ccccc3)c(OCc3ccccc3)c2C(N)=O)cc1 [UL1-072, 3,4-bis(benzyloxy)-1-(4-methoxyphenyl)-1H-pyrrole-2,5-dicarboxamide] | 4.22 to 4.70 |
| COc1ccc(-n2c(C(N)=O)c(O)c(O)c2C(N)=O)cc1 [UL1-073, 3,4-dihydroxy-1-(4-methoxyphenyl)-1H-pyrrole-2,5-dicarboxamide] | > 5.00 |
| CCNC(=O)c1c(OCc2ccccc2)c(OCc2ccccc2)c(C(=O)NCC)n1-c1ccc(OC)cc1 [UL1-074, 3,4-bis(benzyloxy)-N2,N5-diethyl-1-(4-methoxyphenyl)-1H-pyrrole-2,5-dicarboxamide] | 4.22 to 4.70 |
| NC(=O)c1c(OCc2ccccc2)c(OCc2ccccc2)c(C(N)=O)n1-c1ccc(F)cc1 [UL1-075, 3,4-bis(benzyloxy)-1-(4-fluorophenyl)-1H-pyrrole-2,5-dicarboxamide] | 4.22 to 4.70 |
| NC(=O)c1c(O)c(O)c(C(N)=O)n1-c1ccc(F)cc1 [UL1-076, 1-(4-fluorophenyl)-3,4-dihydroxy-1H-pyrrole-2,5-dicarboxamide] | 4.70 to 5.00 |
| CCOc1ccc(-n2c(C(N)=O)c(O)c(O)c2C(N)=O)cc1 [UL1-077, 1-(4-ethoxyphenyl)-3,4-dihydroxy-1H-pyrrole-2,5-dicarboxamide] | 4.22 to 4.70 |
| CCNC(=O)c1c(O)c(O)c(C(=O)NCC)n1-c1ccc(OCC)cc1 [UL1-078, 1-(4-ethoxyphenyl)-N2,N5-diethyl-3,4-dihydroxy-1H-pyrrole-2,5-dicarboxamide] | > 5.00 |
| CCOC(=O)c1c(OCc2ccccc2)c(OCc2ccccc2)c(C(N)=O)n1-c1ccc(OC)cc1 [UL1-079, ethyl 3,4-bis(benzyloxy)-5-carbamoyl-1-(4-methoxyphenyl)-1H-pyrrole-2-carboxylate] | > 5.00 |
| CCOC(=O)c1c(O)c(O)c(C(N)=O)n1-c1ccc(OC)cc1 [UL1-080, ethyl 5-carbamoyl-3,4-dihydroxy-1-(4-methoxyphenyl)-1H-pyrrole-2-carboxylate] | > 5.00 |
| CCOC(=O)c1c(OCc2ccccc2)c(OCc2ccccc2)c(-c2ccccc2OC)n1-c1ccc(OC)cc1 [UL1-081, ethyl 3,4-bis(benzyloxy)-5-(2-methoxyphenyl)-1-(4-methoxyphenyl)-1H-pyrrole-2-carboxylate] | 4.22 to 4.70 |
| CCOC(=O)c1c(OCc2ccccc2)c(OCc2ccccc2)c(-c2ccccn2)n1-c1ccc(OC)cc1 [UL1-082, ethyl 3,4-bis(benzyloxy)-1-(4-methoxyphenyl)-5-(pyridin-2-yl)-1H-pyrrole-2-carboxylate] | 4.70 to 5.00 |
| CCOC(=O)c1c(O)c(O)c(-c2ccccn2)n1-c1ccc(OC)cc1 [UL1-083, ethyl 3,4-dihydroxy-1-(4-methoxyphenyl)-5-(pyridin-2-yl)-1H-pyrrole-2-carboxylate] | > 5.00 |
| CCOC(=O)c1c(OCc2ccccc2)c(OCc2ccccc2)c(-c2ccncc2)n1-c1ccc(OC)cc1 [UL1-084, ethyl 3,4-bis(benzyloxy)-1-(4-methoxyphenyl)-5-(pyridin-4-yl)-1H-pyrrole-2-carboxylate] | > 5.00 |
| CCOC(=O)c1c(OCc2ccccc2)c(OCc2ccccc2)c(-c2cccnc2)n1-c1ccc(OC)cc1 [UL1-085, ethyl 3,4-bis(benzyloxy)-1-(4-methoxyphenyl)-5-(pyridin-3-yl)-1H-pyrrole-2-carboxylate] | > 5.00 |
| CCOC(=O)c1c(O)c(O)c(-c2nc(CC)cs2)n1-c1ccc(OC)cc1 [UL1-086, ethyl 5-(4-ethylthiazol-2-yl)-3,4-dihydroxy-1-(4-methoxyphenyl)-1H-pyrrole-2-carboxylate] | > 5.00 |
| CCOC(=O)c1c(OCc2ccccc2)c(OCc2ccccc2)c(-c2nnc(C)o2)n1-c1ccc(OC)cc1 [UL1-087, ethyl 3,4-bis(benzyloxy)-1-(4-methoxyphenyl)-5-(5-methyl-1,3,4-oxadiazol-2-yl)-1H-pyrrole-2-carboxylate] | > 5.00 |
| CCOC(=O)c1c(OCc2ccccc2)c(OCc2ccccc2)c(-c2nnc(CC)o2)n1-c1ccc(OC)cc1 [UL1-088, ethyl 3,4-bis(benzyloxy)-5-(5-ethyl-1,3,4-oxadiazol-2-yl)-1-(4-methoxyphenyl)-1H-pyrrole-2-carboxylate] | 4.70 to 5.00 |

Same assay, conditions: IC50, inhibition of pneumolysin-induced haemolysis of sheep erythrocytes; specific values

| SMILES | pIC50 |
| --- | --- |
| COc1ccc(-n2c(C(=O)N3CCCCC3)c(OCc3ccccc3)c(OCc3ccccc3)c2C(=O)N2CCCCC2)cc1 [UL1-049, (3,4-bis(benzyloxy)-1-(4-methoxyphenyl)-1H-pyrrole-2,5-diyl)bis(piperidin-1-ylmethanone)] | 6.32 |
